Reference: patent US20230365584A1, “HETEROCYCLIC PERICONDENSED CDC7 KINASE INHIBITORS FOR THE TREATMENT OF CANCER” (SCHRÖDINGER, INC., priority 2020, published 2023)

Legend:
[1] = test system: phosphorylation of MCM2 S53 in colo205 cells; test: Phosphorylated MCM2 MSD electrochemiluminescence assay; assay type: cell-based; conditions: Homo sapiens, COLO 205, 20 h incubation, read-out: pMCM2-S53 MSD Colo205 IC50
Procedure: Phosphorylated MCM2 MSD Electrochemiluminescence Assay
The effect of CDC7 inhibitors on cellular phosphorylation of the CDC7 substrate MCM2 was determined using the following protocol:
A total of 40,000 colo205 cells in 100 uL culture medium (1640 medium+10% Fetal bovine serum+1% Penicillin-Streptomycin) were plated in 96-well cell culture plates and allowed to attach for 6 hours. 3-fold serial dilutions of test compounds were prepared in completed PBS at 25×final concentration and 4 uL of each were added to the cells and incubated for 20 hours at 37° C., 5% CO2. Each concentration was tested in duplicate. After the 20 h incubation, cells were washed with 150 uL PBS and lysed with 40 uL MSD lysis buffer (obtained from Meso Scale Diagnostics) supplied with 1×complete ULTRA cocktail inhibitor (obtained from Roche). To detect phosphorylation of MCM2 S53, 30 μL of capture antibody solution (obtained from Abnova, catalog number H00004171-MO1, 1:500) was added to each well of MULTI-ARRAY 96-well High Bind Plate, and incubated overnight. The antibody solution was removed, wells blocked with BSA solution and plates washed, followed by addition of 30 ul of cell lysate per well. After 2 h incubation, plates were washed. 30 μL of 1×detection antibody solution (obtained from Abcam, catalog number ab109133, 1:1000) was then added to each well and incubate for 1 hour. Plates were washed and 30 μL of 1×secondary antibody solution (obtained from MSD, catalog number R32AB-1, 1:5000) was added to each well and incubate for 1 hour. Plates were washed and 150 µL of 1×Read Buffer T was added to each well of the MSD plate. The electrochemiluminescence signal was measured on a MESO SECTOR S600 plate reader. The percentage of remaining phosphorylated MCM2 signal was calculated following the equation below.
[formula] • HC (high control): Cells treated with DMSO • Cpds: Cells treated with test compounds • LC (low control): Cells treated with positive control CDC7 inhibitor

[2] = biological target: Full length human CDC7 protein co-expressed with DBF4 (Homo sapiens (Human), UniProt O00311); test: CDC7 kinase biochemical assay (ADP-Glo, PDKtide substrate); conditions: 0.1 nM CDC7/DBF4, 1 uM ATP, 10 uM PDKtide, 4 h
Procedure: CDC7 Kinase Biochemical Assay Protocol:
Full length human CDC7 protein co-expressed with DBF4 was purchased from SignalChem (China). CDC7 kinase activity was determined with PDKtide (SignalChem) as a substrate and by measuring ADP production using the ADP-Glo™ Kinase Assay kit (Promega) following the manufacturers instructions. The kinase reaction was performed using the following conditions: Buffer: 40 mM Tris pH 7.5, 20 mM MgCl2, 0.1 mg/ml BSA and 50 uM DTT. Final reaction mix contained 0.1 nM CDC7/DBF4, 1 uM ATP and 10 uM PDKtide. The kinase reaction time was 4 h. The ADP-Glo signal was measured using an EnVision plate reader (PerkinELmer).
Percent inhibition of CDC7 kinase activity was calculated based on the following formula:
[formula] • Ssample: the signal of compounds • SHigh Ctrl: the signal of high control (DMSO) • SLow Ctrl: the signal of low control (positive control CDC7 inhibitor)

Chain of Full length human CDC7 protein co-expressed with DBF4 (O00311 whole entry): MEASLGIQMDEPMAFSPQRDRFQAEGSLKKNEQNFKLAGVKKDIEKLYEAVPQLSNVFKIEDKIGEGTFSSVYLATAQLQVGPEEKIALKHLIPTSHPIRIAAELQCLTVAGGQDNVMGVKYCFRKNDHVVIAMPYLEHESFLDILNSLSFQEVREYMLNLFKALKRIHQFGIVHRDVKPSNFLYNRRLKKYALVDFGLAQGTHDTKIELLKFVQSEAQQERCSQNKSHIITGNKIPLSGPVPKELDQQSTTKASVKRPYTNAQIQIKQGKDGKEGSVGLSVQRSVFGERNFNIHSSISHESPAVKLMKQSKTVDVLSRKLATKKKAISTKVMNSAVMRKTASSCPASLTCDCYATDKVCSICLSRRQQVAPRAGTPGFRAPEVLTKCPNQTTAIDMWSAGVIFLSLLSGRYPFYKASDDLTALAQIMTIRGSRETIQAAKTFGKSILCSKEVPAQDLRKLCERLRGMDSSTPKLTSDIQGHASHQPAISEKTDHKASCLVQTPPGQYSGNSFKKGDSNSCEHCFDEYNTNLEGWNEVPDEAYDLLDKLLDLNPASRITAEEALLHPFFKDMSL
Chain of Full length human CDC7 protein co-expressed with DBF4 (Q9UBU7 whole entry partner): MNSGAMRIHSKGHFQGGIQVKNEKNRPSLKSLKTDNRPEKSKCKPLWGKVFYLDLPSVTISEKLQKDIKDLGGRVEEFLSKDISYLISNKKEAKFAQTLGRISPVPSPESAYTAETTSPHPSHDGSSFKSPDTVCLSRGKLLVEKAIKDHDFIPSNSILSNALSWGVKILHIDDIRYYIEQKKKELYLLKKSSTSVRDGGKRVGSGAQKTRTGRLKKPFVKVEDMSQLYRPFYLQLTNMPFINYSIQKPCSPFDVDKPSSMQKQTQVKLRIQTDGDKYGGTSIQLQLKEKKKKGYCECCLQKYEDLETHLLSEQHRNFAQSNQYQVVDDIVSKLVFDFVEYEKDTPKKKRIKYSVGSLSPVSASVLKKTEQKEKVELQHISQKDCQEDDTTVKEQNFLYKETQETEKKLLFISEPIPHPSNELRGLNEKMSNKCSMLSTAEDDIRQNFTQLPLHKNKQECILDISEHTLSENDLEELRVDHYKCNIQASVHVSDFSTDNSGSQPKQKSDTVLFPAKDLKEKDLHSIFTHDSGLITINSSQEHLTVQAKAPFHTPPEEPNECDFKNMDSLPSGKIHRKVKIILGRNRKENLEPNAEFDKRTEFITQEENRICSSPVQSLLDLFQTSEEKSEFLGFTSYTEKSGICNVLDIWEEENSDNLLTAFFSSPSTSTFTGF

| SMILES | IC50 [1] [µM] | IC50 [2] [µM] |
| --- | --- | --- |
| Cc1[nH]c(=O)c2sc(-c3ccncc3)c3c2c1CCCO3 [Example 1, 5-methyl-1-(pyridin-4-yl)-4,6,7,8-tetrahydro-3H-9-oxa-2-thia-4-azabenzo[cd]azulen-3-one] | 0.1 to 1 | < 0.001 |
| C[C@H](c1[nH]c(=O)c2sc(-c3cn[nH]c3)c3c2c1CCCO3)N1CCC1 (single isomer, unassigned) [Example 31] | < 0.1 | < 0.001 |
| Cc1[nH]c(=O)c2sc(-c3ccncc3)c3c2c1C[C@@H](C)O3 (single isomer, unassigned) [Example 7] | 0.1 to 1 | < 0.001 |
| C[C@@H](c1[nH]c(=O)c2sc(-c3cn[nH]c3)c3c2c1CCCO3)n1cccn1 (single isomer, unassigned) [Example 47] | < 0.1 | < 0.001 |
| Nc1[nH]c(=O)c2sc(-c3cn[nH]c3)c3c2c1CCCO3 [Example 54, 7-amino-2-(1H-pyrazol-4-yl)-12-oxa-3-thia-6-azatricyclo[6.4.1.0^4,13]trideca-1,4(13),7-trien-5-one] | ≥ 1 | < 0.001 |
| Cc1[nH]c(=O)c2sc(-c3cn[nH]c3)c3c2c1CCCO3 [Example 5, 5-methyl-1-(1H-pyrazol-4-yl)-4,6,7,8-tetrahydro-3H-9-oxa-2-thia-4-azabenzo[cd]azulen-3-one] | < 0.1 | < 0.001 |
| CC[C@](C)(O)c1[nH]c(=O)c2sc(-c3cn[nH]c3)c3c2c1CCCO3 (single isomer, unassigned) [Example 57] | < 0.1 | < 0.001 |
| O=c1[nH]c(CN2CCC2)c2c3c(c(-c4cn[nH]c4)sc13)OCCC2 [Example 13, 5-(azetidin-1-ylmethyl)-1-(1H-pyrazol-4-yl)-4,6,7,8-tetrahydro-3H-9-oxa-2-thia-4-azabenzo[cd]azulen-3-one] | < 0.1 | < 0.001 |
| C[C@H](c1[nH]c(=O)c2sc(-c3cn[nH]c3)c3c2c1CCCO3)n1cccn1 (single isomer, unassigned) [Example 46] | 0.1 to 1 | < 0.001 |
| O=C(c1[nH]c(=O)c2sc(-c3cn[nH]c3)c3c2c1CCCO3)N1CCCC1 [Example 51, 2-(1H-pyrazol-4-yl)-7-(pyrrolidine-1-carbonyl)-12-oxa-3-thia-6-azatricyclo[6.4.1.0^4,13]-trideca-1,4(13),7-trien-5-one] | ≥ 1 | 0.001 to 0.01 |
